Among the data in ChEMBL document CHEMBL2010784 (ACS Med Chem Lett, 2011) are EC50 values, retold here.

Broadly, the EC50 is the concentration at which the effect is half-maximal.

The test system of this experiment is Vaccinia virus. Nature of the experiment: Antiviral activity against Vaccinia virus Lederle infected in HEL cells assessed as inhibition of viral-induced cytopathogenicity. Type of experiment: functional, organism-based. To be noted: Orthopoxvirus vaccinia. (Protection from cytopathic effect is a common read-out in antiviral testing.)
On to `Nc1nc2c(ncn2COC(CO)CO)c(=O)[nH]1` [GANCICLOVIR], for which the EC50 stood at 100 µM.
`C#C[C@]1(CO)S[C@@H](n2cnc3c(=O)[nH]c(N)nc32)C[C@@H]1O`: the concentration giving a half-maximal response (EC50) was determined as 27 µM.
With `C#C[C@]1(CO)S[C@@H](n2ccc(N)nc2=O)C[C@@H]1O`, the EC50 came out at 6.5 µM.
For the compound `C#C[C@]1(CO)S[C@@H](n2cnc3c(N)ncnc32)C[C@@H]1O`, the concentration for a half-maximal effect (EC50) was 52 µM.
